From US6825233B2, “Compounds having retinoid-like activity” (Bristol-Myers Squibb Company, priority 2001, dated 2004) come the findings set out here.

One test has as its system T47D. The experiment in a line: Growth assay, [3H]-thymidine incorporation, T47D. It is filed as cell-based. Conditions: Homo sapiens, T47D cells, 3 or 6 days incubation, read-out: Cell Growth Inhibition (IC50, nM) T47D. The protocol: (§1) Principle of the assay: The proliferation of the cells was measured by the incorporation of [^3H]-Thymidine in the DNA of dividing cells.
(§2) Protocol: The number of cells which was plated has been primarily defined to avoid the cells reaching confluence before the end of the experiment duration (T47D & HT3, 750 cells/well; H3396, 200 cells/well of 96 well plates). The first day, the cells were plated in 96 well plates and incubated overnight at 37° C. (in […]; CO2, 5%), allowing the cells adhering to the support. The next day, the compounds were added to the cells and incubated for 3 or 6 days (note: for the 6-day incubation, the medium was replaced at Day3). At the end of the treatment, 10 μl of [^3H]-thymidine (final concentration of 0.4 μCi/well) were added for 4 hours at 37° C., the medium was finally removed, the cells trypsinized and harvested under vacuum on GF/B glass fiber filters. After 3 washes with distilled water, the filter were dried and counted in a scintillation counter after adding 50 μl of Microscint (Packard) to each filter. The percentage of growth inhibition was calculated by using DMSO as reference, which is the vehicle of the compounds. Growth inhibition is reported as IC50's in nM

Another test has as its target T1, RARα (Homo sapiens, UniProt P10276).
T1 construct: made in house; host or cells: E. coli BL21 (DE3)
T1 sequence (P10276 183-417 limits assumed): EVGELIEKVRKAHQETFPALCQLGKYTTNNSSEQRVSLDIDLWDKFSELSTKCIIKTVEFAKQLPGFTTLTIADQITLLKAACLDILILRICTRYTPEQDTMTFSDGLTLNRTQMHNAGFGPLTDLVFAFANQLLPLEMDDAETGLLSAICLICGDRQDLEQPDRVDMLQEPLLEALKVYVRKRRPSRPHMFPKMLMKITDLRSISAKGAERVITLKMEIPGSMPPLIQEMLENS
The experiment in a line: Competition binding assay using Yttrium SPA beads, RARα.

The target in a further test is T2, GAL-RARγ (Homo sapiens, UniProt P13631).
T2 construct: expressed in transfected cells
T2 sequence (P13631 185-419 limits assumed): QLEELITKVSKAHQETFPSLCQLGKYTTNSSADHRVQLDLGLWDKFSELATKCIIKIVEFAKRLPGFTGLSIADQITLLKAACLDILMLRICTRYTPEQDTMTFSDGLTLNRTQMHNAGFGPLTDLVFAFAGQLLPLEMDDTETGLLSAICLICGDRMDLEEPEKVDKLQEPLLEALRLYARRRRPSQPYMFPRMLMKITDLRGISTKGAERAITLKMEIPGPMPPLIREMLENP
In words: Transactivation assay, HeLa cells with GAL-RARγ and (17 mer)x5-Glob-Luc reporter. The format is cell-based. Conditions: stable HeLa cell line, luciferase reporter, 24 hours. (In general: Reporter assays use an easily measured gene product as a stand-in for the process of interest.)

Another test has as its system HT3. The experiment in a line: Growth assay, [3H]-thymidine incorporation, HT3. It is filed as cell-based. Conditions: Homo sapiens. The protocol:
as §1, §2
(Dividing cells build labelled thymidine or BrdU into new DNA.)

The next test concerns the target T3, RARγ (Homo sapiens, UniProt P13631).
T3 construct: made in house; host or cells: E. coli BL21 (DE3)
T3 sequence (P13631 185-419 limits assumed): T2 sequence (P13631 185-419 limits assumed)
In words: Competition binding assay using Yttrium SPA beads, RARγ.

The target of another test is T4, GAL-RARβ (Homo sapiens, UniProt P10826).
T4 construct: expressed in transfected cells
T4 sequence (P10826 183-417 limits assumed): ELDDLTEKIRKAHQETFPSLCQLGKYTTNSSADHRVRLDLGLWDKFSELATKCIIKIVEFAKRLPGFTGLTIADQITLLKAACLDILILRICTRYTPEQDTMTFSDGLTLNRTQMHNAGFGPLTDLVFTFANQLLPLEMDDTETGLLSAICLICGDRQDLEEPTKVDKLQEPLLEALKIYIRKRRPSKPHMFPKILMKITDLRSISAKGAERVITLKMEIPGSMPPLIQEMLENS
The experiment in a line: Transactivation assay, HeLa cells with GAL-RARβ and (17 mer)x5-Glob-Luc reporter. Conditions: stable HeLa cell line, luciferase reporter, 24 hours. It is filed as cell-based.

In the next test the target is T5, GAL-RARα (Homo sapiens, UniProt P10276).
T5 construct: expressed in transfected cells
T5 sequence (P10276 183-417 limits assumed): T1 sequence (P10276 183-417 limits assumed)
In words: Transactivation assay, HeLa cells with GAL-RARα and (17 mer)x5-Glob-Luc reporter. It is filed as cell-based. Conditions: stable HeLa cell line, luciferase reporter, 24 hours.

The next test has as its target T6, RARβ (Homo sapiens, UniProt P10826).
T6 construct: made in house; host or cells: E. coli BL21 (DE3)
T6 sequence (P10826 183-417 limits assumed): T4 sequence (P10826 183-417 limits assumed)
In words: Competition binding assay using Yttrium SPA beads, RARβ.

The mark [1] stands for this setting: HT-3, HT3 cells, [3H]-thymidine incorporation, 3 or 6 days incubation, read-out: Cell Growth Inhibition (IC50, nM) HT3.

Where two headings read alike, the source gives them in different places.

In the case of `CC1(C)Cc2ccc(O)cc2-c2cc(/C=C/c3ccc(C(=O)O)cc3)ccc21` [Compound 8], the IC50 in the test with T47D came to 4.8 nM; with HT3 (setting [1]), 1160 nM. For the same molecule, the Kd at RARα was found to be 8.3 nM; at RARγ, 52.8 nM; at RARβ, 18.6 nM. In addition, the results for the EC50 on GAL-RARγ, on GAL-RARβ and on GAL-RARα were 47 nM, 1.76 nM and 13.5 nM, respectively.
With `COc1ccc2c(c1)-c1cc(/C=C/c3ccc(C(=O)O)cc3)ccc1C(C)(C)C2` [Compound 10], the IC50 with T47D and in the test with HT3 (setting [1]) was less than 0.01 nM each time. Besides, the Kd came to 1.1 nM on RARα, 10.6 nM at RARγ and 1.6 nM on RARβ. Besides, the EC50 at GAL-RARγ was determined as 1.9 nM; at GAL-RARβ it was 0.005 nM; on GAL-RARα, 0.02 nM.
On to `CC1=C(/C=C/C(C)=C/C=C/C(C)=C/C(=O)O)C(C)(C)CCC1` [Retinoic acid, reference compound], for which the IC50 with T47D is 6.5 nM; with HT3 (HT-3, read-out: Cell Growth Inhibition (IC50, nM) HT3), 1 nM.

A word on the IC50: it is the concentration at which inhibition is half-maximal. One may read the Kd as the constant that tells how readily two partners part at equilibrium. The low end stands for a tighter complex, the high end for a looser complex. One may read the EC50 as the midpoint of the concentration-response curve. Read a high EC50 as a need for much substance.
